Laboratory results published in patent EP0006718A1, “1.2.4-Triazolidine-3.5-dione derivatives, process for their preparation and pharmaceutical compositions containing them” (BEECHAM GROUP PLC, priority 1978, dated 1980).

Columns and labels:
[1] = tested on: indomethacin induced gastric damage; assay: Anti-ulcer activity: inhibition of indomethacin induced gastric damage (method of Eleghe); assay type: in vivo; conditions: Rattus norvegicus, 30 minutes before 15mg/kg indomethacin s.c., rats sacrificed 4 hours later
Procedure: Anti-ulcer activity of the compound of Example 4 was assessed by the inhibition of indomethacin induced gastric damage in the rat according to the method of Eleghe (1974) Israeli J. Med. Sci. 10. 1451. Rats were starved overnight given 15mg/kg indomethacin subcutaneously and sacrificed 4 hours later. Stomachs were reflated with n. saline, cut along the greater curvature pinned out and scored for gastric damage.
Groups of 7 rats were used for each treatment and the test compound or vehicle was administered 30 minutes prior to giving the indomethacin. Varying doses of test compound were administered orally and control groups receiving vehicle only were set up simultaneously. Mean values for each treatment were obtained and the Mann Witney test applied for significance of difference between the values obtained with the treatments.

[2] = tested on: 5-hydroxy-tryptamine or histamine induced bronchoconstriction; assay: Broncho-dilation activity: inhibition of induced bronchoconstriction (Konzett-Rossler preparation); assay type: in vivo; conditions: Cavia porcellus, iv; anaesthetised artificially respired guinea-pig; read-out: ED 50 value for inhibition of bronchoconstriction
Excerpt: The compound of Example 4 was examined for its ability to inhibit 5-hydroxy-tryptamine or histamine induced bron- choconstrictioh in the anaesthetised artifically respired guinea-pig (Konzett-Rossler preparation).

## Cn1c(=O)n(CCCCCCC(=O)O)n(CCC(C)(O)COc2ccccc2)c1=O (stereo not shown) [Example 4, 1-(6'-carboxyhexyl)-2-(3"-hydroxy-3"-methyl-4"-phenoxybutyl)-4-methyl'-1,2,4-triazolidine-3,5-dione]
[1]; 25 mg/kg p.o.
  inhibition at 25 mg/kg: 56%
[1]; 50 mg/kg p.o.
  inhibition at 50 mg/kg: 50%
[1]; 100 mg/kg p.o.
  inhibition at 100 mg/kg: 92%
[2]
  ED50: 0.039 mg/kg
